According to patent US20240415801A1, “Methods and Compositions for Treating Fibroids” (Lundquist Institute for Biomedical Innovation at …, priority 2023, published 2024):

Legend:
human fibroid xenograft = test: Human fibroid xenograft mouse model, tumor weight (Example 1); type: in vivo, ovariectomized CB-17 SCID/Beige mice; conditions: 20 mg/kg daily i.p., two months (8 weeks), vs matched vehicle
Text: Portions of intramural uterine fibroids (2-5 cm diameter) were obtained from hysterectomies performed at Harbor-UCLA Medical Center for symptomatic fibroids (n=10). Prior approval was secured from the Institutional Review Board (18CR-31752-01 R) at the Lundquist Institute. Tissues were exclusively sourced from premenopausal patients who had not been treated with hormonal medications for at least 3 months before surgery. The fibroids used in this study were sourced from African American (n=2) and Hispanic (n=8) women aged between 35-50 years (mean 43±4.8 years). The MED12 mutation status of all fibroids was determined by PCR amplification and Sanger sequencing (Laragen Inc., Culver City, CA, USA). […] Informed consent was obtained from all participants. A segment of each tumor was allocated for in vivo studies, and the remaining tissues were promptly snap-frozen and stored in liquid nitrogen for further analysis as previously described. This selection process for tumors was aimed at minimizing variance among fibroids.

[1] = Tolerability and body weight of xenograft mice (Example 2); conditions: 5 mg/kg/three times per week
Description: 9-12-weeks-old female ovariectomized SCID/Beige mice (Charles River Laboratories) were implanted with pellets (Innovative Research of America) containing estradiol (0.05 mg/90 d release) and progesterone (25 mg/60 d release) as previously reported (4, 5). […] After two months of treatment animals were sacrificed, and blood was obtained by cardiac puncture.
Briefly, freshly obtained fibroids from hysterectomies was cut aseptically into small pieces (4-5-mm3 cubes) using a razor blade and weighed. Equal weights of the explants from the same patient were implanted in the flank of SCID mice. […] After two months of treatment animals were sacrificed, and blood was obtained by cardiac puncture.

[2] = tested on: leiomyoma smooth muscle cells (LSMC); test: 3D spheroid culture of leiomyoma smooth muscle cells, qRT-PCR (Example 2); type: cell-based, human; conditions: 3D cultured LSMC, 5 μM, 24 h
Description: Leiomyoma smooth muscle cells (LSMC) were cultured in DMEM supplemented with 10% fetal bovine serum until reaching confluence with a change of media every 2-3 days. Cells at passages p1 to p3 were used for all experiments. Isolated LSMC were plated in 6-well plates (1.5×10^5 cells/well) which were coated with 0.5% agarose gel and incubated 48 hours for spheroid formation with size ranging from 50 μm to 250 μm in diameter (1). For blocking IκBα phosphorylation and nuclear translocation of NFκB, LSMC spheroids were treated with 5 μM of Bay 11-7082 (Cayman Chemical, Ann Arbor, Michigan) for 24 hours. […]
Total RNA was extracted from the xenografts using TRIzol (Thermo Fisher Scientific Inc., Waltham, MA). RNA concentration and integrity was determined using a Nanodrop 2000c spectrophotometer (Thermo Scientific, Wilmington, DE) and Agilent 2100 Bioanalyzer (Agilent Technologies, Santa Clara, CA) as previously described (7, 8). […] Quantitative RT-PCR was carried out using SYBR gene expression master mix (Applied Biosystems). […] The expression levels of selected genes were quantified using Invitrogen StepOne System with FBXW2 (F-box and WD repeat domain containing 2) used for normalization (9). All reactions were run in triplicate and relative mRNA expression was determined using the comparative cycle threshold method (2−ΔΔCq), as recommended by the supplier (Applied Biosystems). […]

fibroid xenografts = test: Immunohistochemistry and Masson's trichrome staining of xenografts (Example 1); type: in vivo, SCID/Beige mice
Description: Tissues were fixed in 4% paraformaldehyde and subsequently embedded in paraffin, and 5-micron sections were cut and mounted onto glass slides. Staining procedures, including Masson's trichrome stain (HT15-1 KT, Sigma-Aldrich), and immunohistochemistry, were conducted as previously described. Primary antibodies utilized in this study included rabbit anti-Ki67 (dilution 1:250, 27309-1-AP, Proteintech Group, Inc, Rosemont, IL, USA), rabbit anti-cleaved caspase-3 (dilution 1:50, #9664, Cell Signaling Technology, Danvers, MA, USA), rabbit anti-CCND1 (dilution 1:50, #55506, Cell Signaling Technology), and mouse anti-E2F1 (dilution 1:50, sc-251, Santa Cruz Biotechnology, Inc., Dallas, TX, USA).

## Cc1ccc(S(=O)(=O)/C=C/C#N)cc1 [Bay 11-7082]
Human fibroid xenograft
  reduction of tumor weight: 50%
[1]
  effect on body weight: no significant effects
[1]; vehicle 26.16g±0.49
  body weight: 25.42 g
[2]
  expression of IL8, TGFB3, Col3A1, CDK2, CCND1, DNMT1 and DNMT3A: significant decrease
Fibroid xenografts; 20 mg/kg daily, 8 weeks
  expression of cell cycle markers CCND1 and E2F1 (IHC): decreased expression
  expression of collagens (Masson's trichrome staining): significant decrease
  expression of proliferation marker Ki67 (IHC): significant reduction
  smooth muscle content (Masson's trichrome staining): no significant differences
Fibroid xenografts; drug versus vehicle
  Cleaved caspase 3 staining (IHC): no significant difference
